Data as given in paper PMC12457078, “Inhibition of soluble epoxide hydrolase in endotoxin induced pig lung injury” (Frontiers in Pharmacology, 2025).
Where “and” joins values, the source holds several entries; their conditions need not be identical. Equal values may be shown once.

Tested on: endotoxin-induced lung injury
Assay: porcine model of LPS-induced acute lung injury: haemodynamics, ventilation/mechanics, blood gases, P/F, chemistry, temperature, survival
Format: in vivo, pig
Set-up: AF baseline / AF end / Ven. sat end: unit not given here
Experimental: The animals were bred for purpose at the Forslunda Agricultural School in Umeå, Sweden. The pigs were pairwise kept in 8 m^2 pens before start of experiments and were fed twice daily with a commercially available pig diet without antimicrobials, and with free access to water. Photoperiods were 12:12 h light:dark. Room temperature in their stall was 20 °C ± 1 °C.
After overnight fasting, but with free access to water and hay, animals were pre-medicated with ketamine (Ketaminol vet® 100 mg/mL; Intervet International B.V, Boxmeer, Netherlands), xylazine (Rompun® vet 20 mg/mL; Bayer Animal Health, Copenhagen, Denmark) and atropine (Atropin Mylan 0.5 mg/mL; Mylan AB, Stockholm, Sweden) by intramuscular injection before an auricular vein was cannulated. Anesthesia was induced with ketamine and midazolam (Midazolam Hameln 5 mg/mL, Hameln Pharmaceuticals, Hameln, Germany) and maintained with ketamine, midazolam, xylazine and fentanyl (Fentanyl 0.05 mg/mL, B. Braun Medical AB, Danderyd, Sweden). The animals were orotracheally intubated and ventilated with tidal volume 8–9 mL/kg, PEEP 8 cmH2O, and a respiratory rate set to achieve an end-tidal carbon dioxide of 5–5.5 kPa.
One animal served as a pharmacokinetic pilot, with arterial and venous catheters placed in a cut-down in the neck. The remaining 21 animals were used for the randomized study (Figure 1). After intubation and start of mechanical ventilation, a second auricular vein cannula was placed and infusion of either AEPU or placebo according to randomization was started. After 2 h of infusion of AEPU or placebo, an infusion of LPS was started. A bolus of 0.1 mg/kg was administered during 30 min after which the infusion rate was adjusted to 0.01 mg/kg/h. During the time between start of AEPU or placebo and LPS infusion, neck dissection was performed, exposing the v jugularis externa and carotid artery. A pulmonary artery introducer and an arterial cannula were placed in vein and artery respectively, and a pulmonary artery catheter introduced through the introducer and the tip placed in the correct position in the pulmonary artery placement guided by continuous invasive pressure monitoring or, when difficult, assisted by fluoroscopy. All surgical procedures were performed under sterile conditions.
AEPU was synthesized according to Kim et al. ([Kim et al., 2007]), delivered in 60 mg vials and dissolved in 30 mL pure ethanol as a co-solvent, of which either 20 mL was added to 980 mL of sodium chloride 9 mg/mL or 8 mL–392 mL sodium chloride, creating a solution of 0.04 mg/mL AEPU and 2% ethanol. The placebo infusion was prepared by adding either 20 mL of pure ethanol to 980 mL of sodium chloride 9 mg/mL or 8 mL of pure ethanol to 392 mL sodium chloride, creating a 2% ethanol solution. Each animal received an infusion of either 0.1 mg/kg/h AEPU or the corresponding volume of placebo solution.
A total of 200 mg of prefabricated lipopolysaccharides (LPS, Escherichia coli serotype 0,111:B4, Sigma-Aldrich (Product no L4130), St. Louis, MO, United States of America) was dissolved in 40 mL of sterile water, carefully mixed and filtered, creating a solution of 5 mg/mL. This preparation was stored frozen (−20 °C) in 1 mL partitions. For each animal, 2 mL of the thawed solution was mixed and diluted in 18 mL of sodium chloride, finally creating a 0.5 mg/mL LPS solution for infusion.
All animals were monitored with pulse oximetry, heart rate, ECG, systemic arterial blood pressure (ABP), pulmonary arterial pressure (PAP), central venous pressure (CVP) temperature, tidal volumes, respiratory rate and end tidal carbon dioxide. At baseline, and at 3 h, 6 h and at the end of the experiment, pulmonary capillary wedge pressure (PCWP) was measured together with arterial and venous blood gas analyses, as well as cardiac output calculations. […]

[1] = individual animals, 3 h, listed as sEH-i 950
[2] = individual animals, 6 h, listed as sEH-i 950
[3] = individual animals, end, listed as sEH-i 950
[4] = last available measurement, AEPU group

## CCOCCOCCOCCCCCNC(=O)NC12CC3CC(CC(C3)C1)C2 [Compound 950]
[1]
  PaO2 3 h: 22.1 kPa and 20.1 kPa and 17 kPa and 22.7 kPa and 19.3 kPa and 16.7 kPa and 9 kPa and 8.1 kPa and 7.3 kPa and 14.7 kPa
  SBP 3 h: 124 mmHg and 122 mmHg and 103 mmHg and 102 mmHg and 110 mmHg and 101 mmHg and 162 mmHg and 123 mmHg and 78 mmHg and 116 mmHg
  SPAP 3 h: 82 mmHg and 46 mmHg and 45 mmHg and 53 mmHg and 66 mmHg and 58 mmHg
  Ven. sat 3 h: 69 and 79 and 74 and 62 and 58 and 49 and 34
[2]
  CO 6 h: 3.2 L/min and 3.3 L/min and 3.1 L/min and 1.7 L/min and 2.4 L/min
  CVP 6 h: 14 mmHg and 16 mmHg and 22 mmHg and 15 mmHg and 26 mmHg and 25 mmHg
  HR 6 h: 170 and 173 and 175 and 138 and 120 and 226 and 116 and 162
  MAP 6 h: 82 mmHg and 60 mmHg and 94 mmHg and 91 mmHg and 66 mmHg and 55 mmHg
  MPAP 6 h: 35 mmHg and 44 mmHg and 42 mmHg and 24 mmHg and 49 mmHg and 41 mmHg and 43 mmHg
  PCWP 6 h: 19 mmHg and 17 mmHg and 18 mmHg and 21 mmHg
  PaCO2 6 h: 5.1 kPa and 5.9 kPa and 6.2 kPa and 5.3 kPa and 5.5 kPa and 4.4 kPa and 6.3 kPa and 8 kPa and 9.4 kPa
  PaO2 6 h: 19.6 kPa and 12.3 kPa and 11.8 kPa and 18.6 kPa and 18.5 kPa and 14.7 kPa and 8.7 kPa and 9.4 kPa and 6.8 kPa and 7.9 kPa
  SBP 6 h: 104 mmHg and 106 mmHg and 119 mmHg and 88 mmHg and 110 mmHg and 100 mmHg and 95 mmHg
  SPAP 6 h: 42 mmHg and 47 mmHg and 48 mmHg and 36 mmHg and 57 mmHg and 44 mmHg and 52 mmHg and 53 mmHg
  Ven. sat 6 h: 57 and 59 and 45 and 73 and 68 and 44 and 46 and 7 and 10
Individual animals, at max SPAP, listed as sEH-i 950
  MPAP (vid max SPAP): 60 mmHg and 52 mmHg and 62 mmHg and 57 mmHg and 84 mmHg and 66 mmHg and 47 mmHg
[3]
  CO end: 3.9 L/min and 2.8 L/min and 3.6 L/min and 5.2 L/min and 0 L/min and 1.4 L/min
  CVP end: 17 mmHg and 15 mmHg and 13 mmHg and 20 mmHg
  HR end: 163 and 147 and 150 and 130 and 165 and 160 (0) and 135
  MAP end: 55 mmHg and 56 mmHg and 105 mmHg and 64 mmHg and 67 mmHg and 42 mmHg and 43 mmHg
  MPAP end: 30 mmHg and 50 mmHg and 33 mmHg and 24 mmHg and 40 mmHg and 43 mmHg and 48 mmHg
  PCWP end: 17 mmHg and 22 mmHg and 16 mmHg and 15 mmHg and 25 mmHg
  PaCO2 end: 5.3 kPa and 6.1 kPa and 4.8 kPa and 4.4 kPa and 7.3 kPa and 6.4 kPa
  PaO2 end: 19.9 kPa and 13.4 kPa and 12 kPa and 19.5 kPa and 12.2 kPa and 4.4 kPa and 8.7 kPa
  SBP end: 102 mmHg and 103 mmHg and 116 mmHg and 97 mmHg and 92 mmHg and 66 mmHg and 70 mmHg
  SPAP end: 38 mmHg and 57 mmHg and 43 mmHg and 29 mmHg and 47 mmHg and 49 mmHg and 54 mmHg
  Ven. sat end: 69 and 54 and 58 and 56 and 70 and 19
Individual animals, maximum, listed as sEH-i 950
  SPAP max: 73 mmHg and 71 mmHg and 91 mmHg and 70 mmHg and 72 mmHg and 84 mmHg and 80 mmHg and 75 mmHg
[4]
  Bilirubin: 11.1 (8.6–18.8) μmol/L
  CVP: 16 (15–17) mmHg
  Compliance: 7.9 (7.3–9.7) ml/cmH2O
  Creatinine: 133 (102–152) μmol/L
  Hemoglobin: 116 (107–128) g/L
  MAP: 66 (55–97) mmHg
  MPAP: 46 (35–50) mmHg
  P/F: 22 (11–42) kPa
  PCWP: 18 (16–21) mmHg
  PIP: 33 (29–37) cmH20
  PVR: 643 (390–1057) dynes*sec/cm^5
  PaCO2: 5.8 (4.9–7.1) kPa
  SVR: 1314 (1089–2375) dynes*sec/cm^5
  SvO2: 55 (25–66) %
  Temperature: 38.5 (38.0–40.1) °C
  pH: 7.16 (7.07–7.26)
Time of death or termination, individual animals, listed as sEH-i 950
  Mortalitet: Tidpunkt: 6 h and 9 h and 8 h
